This passage reports melting point results from a melting point compilation (Tetko et al.; mined from patent text by program, amines drawn as free bases though some values may be those of a salt).

Broadly, the melting point is the temperature, or range, at which the solid turns liquid. Consider `CS(=O)(=O)OCC1CSC2=C(O1)c1ccccc1C(=O)C2=O` (stereo not given), for which the melting point fell in the range of 230 to 232 °C.

The compound `CCOCC(O)COc1ccc(NC(=O)CCS(C)(=O)=O)cc1` (stereo not given) showed a melting point of 111 to 112 °C.

`COc1ccc(-c2coc3cc(OC(C)C)ccc3c2=O)cc1` came in with a melting point of 245 to 246 °C.

`O=C(NCC12CC3CC(CC(C3)C1)C2)c1cc(-c2ncccc2OCc2nnn[nH]2)ccc1Cl` registered a melting point of 122 to 126 °C.

Take `CC(C)Oc1cc(O)c(C(=O)C=Cc2ccccc2OC(C)C)c(OC(C)C)c1`: the melting point was 119 to 120 °C.

Consider `COc1cc(N(C)C)c(Cl)cc1C(=O)NCC1CN(Cc2ccc(C#N)cc2)CCO1` (stereo not given), for which the melting point was 161 to 163 °C.

For the compound `C1=CC2=NCCC3CCOC23C=C1` (stereo not given), the melting point is 170 to 171 °C.

`Cn1cc(-c2cc3cccnc3[nH]2)c2cc(C(=O)NC(C)(C)CO)ccc21` came in with a melting point of 161 to 162 °C.

Compound `CNC(=N)Cc1nc(C(C)C)c(Sc2cc(Cl)cc(Cl)c2)n1C` yielded a melting point of 176 to 178 °C.

On to `CC[C@H](Cc1sccc1Cl)Nc1ncnc2c1ncn2[C@@H]1C[C@H](CF)[C@@H](O)[C@H]1O`, for which the melting point was 143 °C.

Compound `CC(C)CNc1ccccc1CS(=O)c1nc2ncccc2[nH]1` (stereo not given) yielded a melting point of 116 °C.

`CCN1CCN(c2ccnc3c(NC(=O)c4c(Cl)cccc4Cl)cccc23)C1=O` showed a melting point of 249 to 253 °C.

`CCCCn1c(COc2ccccc2)nc2c(N)nc3ccccc3c21` returned a melting point of 172 to 173 °C.

On to `O=c1cc(-c2ccc(C(F)(F)F)cc2)cc(C(F)(F)F)o1`, for which the melting point was determined as 52 °C.

`CC(C)CCCCCCCCCCCCc1ccc(O)cc1O` yielded a melting point of 70 °C.

With `CSc1ccccc1CNc1ncnc2c1sc1nc(N3CCCC3)c3c(c12)CC(C)(C)OC3`, the melting point is 176 to 177 °C.

On to `CNC(=O)n1sc(SC)nc1=O`, for which the melting point was determined as 144 °C.

Turning to `CC(=O)Nc1cc(C(C)(C)C)c(Cl)cc1CN(C)C1CCCCC1`, the melting point was in the range of 174 to 176 °C.

Compound `CC1(C)OC(=S)Nc2ccc(-c3cccc(Br)c3)cc21` showed a melting point of 191 to 193 °C.

With `O=S(=O)(NCc1ccccc1)c1cc(F)c2cccnc2c1O`, the melting point was found to be 186 °C.

In turn, `CCC(C)c1nn(-c2ccc(C(F)(F)F)cn2)cc1CCCOc1c(C)cccc1CC(=O)O` (stereo not given) showed a melting point of 134 to 135 °C.

For the compound `CCOC(=O)Cn1[nH]c(=O)c2ccccc2c1=O`, the melting point was 68 to 70 °C.

As to `Clc1ccc(Sc2ncccn2)cc1`, the melting point lay within 68 to 70 °C.

`CC(C)OC1COc2ccc(OCc3ccc4ccccc4n3)cc2C1=O` (stereo not given): the melting point is 85 °C.

For the compound `CCCCCCCCCCCCSC(=O)CS(=O)(=O)Nc1c(OC)cc(OC)cc1OC`, the melting point is 90 to 93 °C.

The compound `CC1C(c2ccccc2)NC(c2ccccc2)C(C)C1OC(=O)CCCCCCCCC(=O)OC1C(C)C(c2ccccc2)NC(c2ccccc2)C1C` (stereo not given) yielded a melting point of 128 to 135 °C.

On to `O=c1n(CC(O)c2ccccc2)c2c(Br)c(Br)c(Br)c(Br)c2n1CC(O)c1ccccc1` (stereo not given), for which the melting point was in the range of 121 to 123 °C.

Take `CC(=O)N(C)C1CCC(O)(c2ccc(Cl)c(Cl)c2)c2ccccc21` (stereo not given): the melting point was in the range of 146 to 148 °C.

In turn, `CCOC(=O)c1cc(O)ccc1OCC` had a melting point of 49 to 53 °C.

For the compound `COC(=O)OCC1OC(n2cc(C)c(=O)[nH]c2=O)CC1OS(C)(=O)=O` (stereo not given), the melting point was in the range of 70 to 72 °C.

The compound `COC(=O)c1ccc(C(=O)N2CCN(c3ncccc3NC(C)C)CC2)cc1` yielded a melting point of 116 to 118 °C.

Compound `O=C1NC(=O)C2(N1)c1ccccc1-c1ncccc12` (stereo not given) yielded a melting point of 311 to 312 °C.

As to `NCCc1cccc(N2C(=O)N(c3c(Cl)cccc3Cl)Cc3cnc(Nc4ccccc4)nc32)c1`, the melting point worked out at 208 °C.

The compound `O=C1CCn2c3c(c4cccc1c42)CCN(C(=O)c1ccccc1)CC3` gave a melting point of 178 to 181 °C.

For `COc1cc(C)nc(-c2ccc(C)cc2)n1`, the melting point fell in the range of 66 to 67 °C.

In turn, `Brc1ccc2cc(OCc3ccc4ccccc4n3)ccc2c1` returned a melting point of 135 to 137 °C.

Compound `CN1C(=O)c2c(n3cncc3c3[nH]c4ncccc4c23)C1=O` had a melting point of 304 to 307 °C.

Turning to `OC(CN1CCN(Cc2ccc(F)cc2)CC1)Cn1c2ccccc2c2cc(-c3ccccc3)ccc21` (stereo not given), the melting point turned out to be 188 °C.

Compound `COc1cc(C)nn1-c1ccc(Br)cc1` registered a melting point of 67 to 68 °C.

In the case of `COc1ccc(F)c(C(N)=O)c1`, the melting point fell in the range of 122 to 124 °C.

As for `N#CN(Cc1ccccc1)C(=O)CCCC(=O)N(C#N)Cc1ccccc1`, the melting point fell in the range of 97.5 to 100 °C.

`CCCCN(N)C(=O)NC` gave a melting point of 48 to 50 °C.

In turn, `N#Cc1ccc2c(c1)C(=O)c1cc(N3CCCCC3)ccc1C2=O` showed a melting point of 274 to 275 °C.

As for `CCOC(=O)C(C)(C)Oc1ccc(CNc2ccc(Cl)cc2)cc1`, the melting point lay within 58 to 60 °C.

With `Nc1snc2nc(N3CCCC3)sc12`, the melting point is 262 to 264 °C.

`CCN1CCCC(N2C(=O)c3ccc([N+](=O)[O-])cc3C2=O)C1` (stereo not given) yielded a melting point above 300 °C.

In the case of `CCCCNC(=O)Oc1cccc(NC(=O)CC(C)(OC)OC)c1`, the melting point came out at 114 °C.

`CSC(=C[N+](=O)[O-])NCCSCc1[nH]cnc1C` had a melting point of 147 to 150 °C.

Compound `COC(=O)CNC(=O)c1ncccc1S` gave a melting point of 178 to 179 °C.

In turn, `CCOCC(=O)SSc1ccc([N+](=O)[O-])cc1C(Cl)(Cl)Cl` registered a melting point of 89 °C.

In the case of `CC(C)Oc1ccc(-c2ccc3nnn(Cc4ccc5ncccc5c4)c3n2)cc1F`, the melting point lay in the range of 128 to 130 °C.

In turn, `CC(C)(SN=O)C1COC(=O)N1` (stereo not given) displayed a melting point of 65 °C.

Turning to `CCn1ncc2c(NCC3(O)CCCCC3)c3cc(OC)ccc3nc21`, the melting point was 201 to 203 °C.

The compound `CCOC(=O)c1ccccc1N(CC(=O)N(C)c1ccccc1)C(=O)CNC(=O)Nc1cccc(C(C)O)c1` (stereo not given) yielded a melting point of 195 °C.

For the compound `O=C(Oc1ccc(F)cc1)N1CCN2C(=O)OC(c3ccccc3)(c3ccccc3)C2C1` (stereo not given), the melting point lay in the range of 188 to 189 °C.

As for `CCCCCCCCCCCCCCCCCCOc1cc(C(=O)OC)cc(C(=O)OC)c1`, the melting point was 54 to 55 °C.

For `Cc1cc(SC(Sc2cc(C)c(O)c(C(C)(C)C)c2)Sc2cc(C)c(O)c(C(C)(C)C)c2)cc(C(C)(C)C)c1O`, the melting point lay in the range of 171 to 172 °C.

In turn, `Cc1cc2cnccc2s1` came in with a melting point of 47 to 48 °C.

In turn, `CCOC=Nc1c(C(=O)OCC)cnn1C` came in with a melting point of 32 to 34 °C.

Turning to `CCN1c2ncccc2C(=S)N(C)c2cccnc21`, the melting point fell in the range of 157 to 158 °C.

Regarding `O=C(CNc1ccc(F)cc1)N1CCN2C(=O)OC(c3ccccc3)(c3ccccc3)C2C1` (stereo not given), the melting point was 203 to 204 °C.

The compound `O=C(O)C1CCCc2c1ccc1c2OCO1` (stereo not given) displayed a melting point of 225 to 257 °C.

`CC(C)(C#N)ON1C(C)(C)CC(OC(=O)c2ccccc2)CC1(C)C` had a melting point of 128 to 129 °C.

The compound `O=[N+]([O-])c1c(Cl)cccc1NCC(O)CO` (stereo not given) returned a melting point of 126 °C.

`Nc1ccc(CS(=O)(=O)NC2CCCCC2)cc1` came in with a melting point of 141 to 143 °C.

The compound `Cc1noc(NC(=O)N2CCN(c3cncc(-c4ccc(F)cc4F)n3)CC2)c1C` came in with a melting point of 225 to 226 °C.

In turn, `C=CCNc1nc(NC(=O)N2CCCC2)c2scc(C)c2n1` displayed a melting point of 98 to 101 °C.

As for `COc1cccc2c1N(S(=O)(=O)c1ccc(-c3ccc(F)cc3F)cc1)C(C(=O)NCc1ccc(C(=O)O)cc1)C2` (stereo not given), the melting point was 218 °C.

Consider `O=C(Nc1cccc(S(=O)(=O)NCc2ccncc2)c1)c1cnn2c(C(F)(F)F)cc(-c3ccc(C(F)(F)F)cc3)nc12`, for which the melting point was found to be 251 °C.

Turning to `COC(=O)COc1cccc(CCNC(=O)/C=C/c2cccnc2)c1`, the melting point was in the range of 102 to 104 °C.

The compound `CCCCc1ccc(N2CCC(CCOc3ccc(C(=O)OCC)cc3)CC2)nn1` had a melting point of 91.4 °C.

For the compound `Cc1nn(CCNS(C)(=O)=O)c(-c2ccc(F)cc2)c1-c1ccc2c(c1)NC(=O)CO2`, the melting point fell in the range of 220 to 221 °C.

For the compound `CCOC(=O)C=Cc1ccc2c(c1)CC(CNC(=O)OC(C)(C)C)CC2` (stereo not given), the melting point is 117 to 119 °C.

In turn, `CC1(C)C(C=C(F)C(=O)OCC(F)(F)F)C1C(=O)OC(C#N)c1ccc(F)c(Oc2ccccc2)c1` (stereo not given) came in with a melting point of 85 °C.

`COc1ccc(CNc2cc3c(Nc4ccc5c(cnn5Cc5cccc(F)c5)c4)ncnc3cn2)cc1` showed a melting point of 196 to 198 °C.

In the case of `Cc1cc(C)cc(OCC(O)CNc2nc(-c3ccccc3)nc3ccccc23)c1` (stereo not given), the melting point lay in the range of 170 to 172 °C.

In turn, `CCN(CC)c1c([N+](=O)[O-])cc(C(F)(F)F)c(N2CCCC2=O)c1[N+](=O)[O-]` displayed a melting point of 94 to 95 °C.

The compound `Cc1ccc(CNc2c(NC(C)(C)C)c(=O)c2=O)c(C)c1` gave a melting point of 228 to 229 °C.

`CC(=Cc1ccc(-n2cnc3c2CCCC3)cc1)[N+](=O)[O-]`: the melting point fell in the range of 147 to 149 °C.

`Cc1ncc(-c2ccc(Cl)cc2)cc1C#N`: the melting point is 158 to 159 °C.

Regarding `CN1CCN2CCNC2(c2ccccc2)c2cc(Cl)ccc21` (stereo not given), the melting point fell in the range of 100 to 102 °C.

`COc1ccc(S(=O)(=O)Nc2cccnc2NC(=O)c2ccccc2C)cc1` showed a melting point of 160 to 162 °C.

The compound `N#Cc1nn(-c2c(Cl)cc(C(F)(F)F)cc2Cl)c(N)c1C#N` registered a melting point of 221 to 222 °C.

For the compound `CC(c1oc2ccccc2c(=O)c1-c1ccccc1)n1nc(-c2ccc3cn[nH]c3c2)c2c(N)ncnc21` (stereo not given), the melting point was 176 to 178 °C.

`CC(=O)c1cccc(Oc2ncccc2NC(=O)Cc2ccc(C(C)(C)O)cc2)c1`: the melting point was 85 to 87 °C.

Turning to `CCC(CC)=NNc1cc2c(nn1)CCN(C(=O)C(C)(C)C)C2`, the melting point was 183 to 185 °C.

In turn, `Cn1nc(O)c2ccccc2c1=O` returned a melting point of 243 to 244 °C.

The compound `COc1ccc(C(C#N)SC2CCCCC2)cc1OC` (stereo not given) displayed a melting point of 80 to 82 °C.

Compound `Cc1cnn(C(C)C(=O)N(C)C)c1-c1ccccc1` (stereo not given) displayed a melting point of 88 to 90 °C.

`CCc1nc(C)cn1S(=O)(=O)c1c[nH]cn1` showed a melting point of 147 to 148 °C.
